Several values for one entry are separate records, joined by “and”; a condition that tells them apart may be missing. Equal values may be shown once.
Legend:
[1] = test system: P. aeruginosa strain PA M57-15; assay: MIC and MBC determination, standard CLSI protocol with minor modifications; assay type: cell-based, Pseudomonas aeruginosa
Description: Pseudomonas aeruginosa isolate PA M57-15 was generously donated by Thomas Ferkol, M.D. (Washington University, St. Louis, MO). PA M57-15 was struck from frozen glycerol stocks on to tryptic soy agar plates (Remel) and incubated overnight at 37 °C in a warm room until individual colonies formed. A single colony was inoculated in 10 mL Mueller-Hinton (MH) broth, grown in a shaking incubator (37 °C, 200 rpm) to log phase (OD650 = 0.4), and utilized for experiments after appropriate dilutions. PA M57-15 bacterial suspension at OD650 = 0.4 corresponds to 2–3 × 10^8 CFU/mL, as verified by repeated serial dilution and plating.
The MIC and MBC determinations of the various SCCs and the Ag-PPE-SCK NPs were performed using a standard CLSI protocol with minor modifications. A mucoid clinical isolate of Pseudomonas aeruginosa, PA M57-15, from a cystic fibrosis patient was utilized, because we have previously studied this strain in murine models of P. aeruginosa lung infection[21],[29],[30]. PA M57-15 grown to log phase as previously described was diluted to a density of 10^6 CFU/mL in MH and added 1:1 in a 96-well plate with different concentrations of SCCs dissolved in 95:5 (v:v) DH2O:DMSO solution or the Ag-PPE-SCKs suspended in DH2O. The final SCC concentrations tested were 0.25, 0.5, 0.75, 1, 1.5, and 2 μg/mL and were increased in two-fold increments from 2 μg/mL to 32 μg/mL. The final DMSO concentrations in the wells was 2.5% (v/v) and had no impact on bacterial growth, as determined by growth in the positive control wells. […] Contents of these clear wells were streaked on agar plates and incubated for an additional 24 hours at 37 °C. […] Three technical replicates were employed for each experiment and a total of three biological replicates were performed on separate days (3 technical replicates x 3 biological replicates = 9 total replicates) to account for day-to-day variations in media, bacterial growth, compound dilutions, as well as other experimental conditions. The MIC and MBC values that were identical for at least two readings out of the three are reported.

[2] = test system: immortalized human bronchial epithelial cells (16HBE); assay: alamarBlue cytotoxicity assay against 16HBE cells (in vitro LD50); assay type: cell-based; conditions: 24 h
Description: (§1) 16HBEs (16HBE14o-), generously provided by Dr. D. Gruenert (University of California, San Francisco, CA) are a human bronchial epithelial cell line transformed with SV40 large T-antigen using the replication-defective pSVori plasmid. 16HBEs were used as a model to determine the relative toxicities of the SCCs to airway cells. Cells between passages 20 to 35 were cultured in Minimum Essential Medium with Earle’s Balanced Salts (Sigma Aldrich) and non-essential amino acids supplemented with penicillin-streptomycin (1%), L-glutamine (1%), and foetal bovine serum (10%). Additionally, primary human dermal fibroblasts (HDFs) were also utilized for in vitro toxicity studies. HDFs at passage 4 were generously donated by Carol Tamminga, M.D. (University of Texas Southwestern Medical Center, Dallas, TX). HDFs were cultured in Dulbecco’s Modified Eagle Medium (Sigma Aldrich) supplemented with penicillin-streptomycin (1%), L-glutamine (1%), and foetal bovine serum (10%) and were utilized between passage 7 to 14 for in vitro toxicity studies. 16HBE and HDF cultures were assessed for bacterial contamination visually, while mycoplasma contamination was assessed both visually and through a PCR-based Universal Mycoplasma Detection Kit assay (ATCC® 30-1012K^TM).
(§2) 16HBEs and HDFs grown to confluency (90–95%) as described above were sub-cultured, re-suspended in the appropriate medium, and seeded in wells of clear 96-well plate(s) at either 25,000 cells/well (16HBEs) or 15,000 cells/well (HDFs) with 100 µL of feeding media and incubated over 24 hours at 37 °C, 5% CO2, and 100% RH. The cells were then washed once with sterile phosphate buffered saline (PBS, pH = 7.4) and 100 µL of SCCs or the Ag-PPE-SCKs at various concentrations in OPTI-MEM® (Invitrogen) with 3.3% (v/v) DMSO, or without for the Ag-PPE-SCKs, was added to the cells. Next, 10 µL of alamarBlue® (Invitrogen) was added to each well and the plates were re-incubated for 24 h. Finally, the plates were measured for optical density at 570 and 600 nm with a spectrophotometer (POLARstar Omega, BMG Labtech or Cytation 5, BioTek). Untreated cells and media only (with alamarBlue®) were used as controls. […] The relative viabilities of the cells were determined as per the manufacturer’s instructions and using GraphPad Prism® software to generate a non-linear curve fit and interpolate the in vitro LD50 for each SCC. This assay was performed with three technical replicates for each SCC and Ag-PPE-SCK dose and biological replicates were performed in quadruplicate on separate days (3 technical replicates × 4 biological replicates = 12 total replicates). The DEM for each SCC was determined as the ratio of the molar LD50 and MBC concentrations (LD50/MBC).

[3] = test system: primary human dermal fibroblasts (HDFs); assay: alamarBlue cytotoxicity assay against HDFs (in vitro LD50); assay type: cell-based; conditions: 24 h
Description: as §1, §2

[4] = test system: 16HBE cells vs. PA M57-15; assay: Drug efficacy metric (DEM = LD50/MBC) using 16HBEs; set-up: species or system human; conditions: 16HBE-based DEM; one-way ANOVA with Tukey's test or unpaired t-test
Description: as §2, with “This assay was performed with three technical replicates for each SCC and Ag-PPE-SCK dose and biological replicates were performed in quadruplicate on separate days (3 technical replicates × 4 biological replicates = 12 total replicates).” left out

[5] = test system: Pseudomonas aeruginosa (PA M57-15); assay: Murine P. aeruginosa acute lung infection model, nebulized treatment; assay type: in vivo, mouse; conditions: for survival: 25 µmol Ag+ per dose nebulized, 5 doses, sham 9.1%; for survival / survival compared with sham treatment: 90:10 DH2O:DMSO, head-to-head of four SCCs; for clinical illness score (signs of illness): 25 µmol per dose nebulized with DMSO, SCC1 and SCC22: at 24 hours following infection, scorers not blinded; for survival compared with sham treatment: 25 µmol per dose nebulized
Description: Weight-matched male C57BL/6 J mice aged 6–8 weeks were used for all acute lung infection studies, which were approved by the University of Texas Southwestern Medical Center Institutional Animal Care and Use Committee (IACUC). All experiments were performed in accordance with relevant guidelines and regulations. Animals were housed in a barrier facility under pathogen-free conditions until they were inoculated with bacteria. The previously described clinical mucoid strain of Pseudomonas aeruginosa (PA M57-15) grown to mid-log phase (OD650 = 0.4) in Luria broth (LB) was used for all pulmonary infection experiments. The density of the bacterial culture (CFU/mL) was determined using serial dilution and plating for each experiment.
Mice were anesthetized by intraperitoneal administration of a ketamine (60 mg/kg) and xylazine (8 mg/kg) cocktail, intranasally inoculated using 75 µL of the bacterial inoculum (~1 × 10^6 CFU per mouse), and assigned randomly into treatment groups. Treatment was administered at 1-hour post-inoculation and again every 12 hours thereafter up to a 5th dose at 49 hours via nebulization of 5 mL of SCC solutions (containing 25 µmol total Ag^+ cation per dose for each SCC) or sham treatment. For the head-to-head comparison of unencapsulated SCC1, SCC22, SCC23, and SCC28, all SCCs were dissolved in a 90:10 (v/v) mixture of DH2O and DMSO; whereas, the sham treatment consisted of 90:10 DH2O: DMSO, but with dilute phosphate buffer (1 mM Na2HPO4, 0.2 mM KH2PO4) incorporated to provide tonicity for nebulization. For the dose-response studies with unencapsulated SCC1 and SCC22, 5 mL of SCCs dissolved in DH2O alone or 90:10 (v/v) mixture of DH2O and DMSO was nebulized to provide a total dose of 25, 50, or 100 µmol Ag^+ cation per dose for each SCC. Nebulization of the SCCs was achieved using a previously described experimental setup comprising of an Aeroneb Lab apparatus connected to a multi-dosing chamber. Throughout each study, the mice were monitored constantly and times of death were recorded. Every 24 hours, the mice were weighed and assigned cumulative clinical illness scores (0–6) based on their resting posture (0–2), condition of their fur (0–1), and overall activity level (0–3), with higher scores indicating more severe illness. The investigators assigning the scores were not blinded to the treatment group, which is a limitation of this study. The survival studies were all performed in duplicate with results pooled.
In vivo efficacy testing of the silver loaded, polyphosphoester, shell-crosslinked, knedel-like nanoparticles (Ag-PPE-SCKs) was carried out in a similar manner as with the SCCs. Ag-PPE-SCKs were suspended in 5 mL DH2O to a concentration of ~5 mM silver, as previously determined by mass spectrometry, and empty PPE-SCKs were suspended corresponding to the same mass of polymer. SCC1, a comparator treatment, was similarly dissolved to 5 mM in 5 mL DH2O, and sham consisted of the DH2O:phosphate buffer solution used in the other studies. The infection model was carried out as before; however, the Ag-PPE-SCKs and PPE-SCKs were dosed at 1 and 25 hours post-infection with the nanoparticles and given sham treatment at 13, 37, and 49 hours. SCC1 and sham treatment groups were dosed at all five time points. Survival studies were performed twice and pooled, though SCC1 was only used in one of the survival studies.

[6] = test system: Pseudomonas aeruginosa (PA M57-15); assay: Histology of lungs of infected, treated mice; assay type: in vivo, mouse; conditions: lungs at 25 hours after three treatments; for aggregate histological score: inflammation, consolidation, congestion/haemorrhage each 0 to +3, sham +6
Description: Male C57BL/6 J mice were infected with PA M57-15 and treated with the four SCCs or vehicle as described above. At 25 hours, following three treatments, the mice were humanely euthanized by cervical dislocation following anesthetization by a ketamine/xylazine cocktail. Lungs of the mice were harvested aseptically, the lung sections fixed in 10% formalin for a minimum of 12 hours, and embedded in paraffin using an automated rapid tissue processor (Peloris-Leica Microsystems Inc., Buffalo Grove, IL). Two 5-micron thick sections were obtained from each paraffin block and stained with Haematoxylin/Eosin on an automated stainer (Symphony, Ventana-Roche, Tucson, AZ). Sections were evaluated by light microscopy (Nikon Eclipse-Ni, Nikon Instruments, Inc., Americas), scored using a semi-quantitative scale from 0 (negative), +1 (mild), +2 (moderate), and +3 (severe) for the following parameters: inflammation, consolidation, congestion/haemorrhage, and an aggregate score was calculated for each group. The presence of bacterial colonies if any was also noted. A pathologist, who was blinded to the treatment received by the mice, performed the examination and analysis of tissues. A total of two mice were used in each treatment group.

[7] = test system: primary tracheal epithelial cells grown at air-liquid interface; set-up: method as in PMID 20005242; conditions: higher than 16HBE; cited from earlier work
[8] = set-up: method as in PMID 23930200; conditions: radiolabelled Ag+; cited from earlier work
[9] = set-up: method as in PMID 20449175; conditions: cited from earlier work
[10] = 100 µmol, DMSO-free formulation

| SMILES | MBC ([1]; PA M57-15) | MIC ([1]; PA M57-15) | MBC ([1]; PA M57-15, molar basis) | MIC ([1]; PA M57-15, molar basis) | LD50 [2] | LD50 [3] | DEM compared between formulations [4] | survival [5] | clinical illness score (signs of illness) [5] | survival advantage compared with sham treatment ([5]; 25 µmol, DMSO-free formulation) | survival advantage compared with sham treatment ([5]; 25 µmol, with DMSO) | survival advantage compared with sham treatment ([5]; 50 µmol, DMSO-free formulation) | survival advantage compared with sham treatment [5, 10] | survival advantage compared with sham treatment ([5]; 100 µmol, with DMSO) | bacterial colonies in lung tissue [6] | aggregate histological score [6] | survival compared with sham treatment [5] | also measured |
| --- | --- | --- | --- | --- | --- | --- | --- | --- | --- | --- | --- | --- | --- | --- | --- | --- | --- | --- |
| CC(=O)[O][Ag][c]1n(C)c2c(c(=O)n(C)c(=O)n2C)[n+]1C [SCC1] | 1.5 µg/mL | 0.75 µg/mL | 4.0 µM and 4 µM | 2.0 µM and 2 µM | 297 µM | 25.8 µM | significantly higher DEMs than SCC23 and SCC28 | 25% | significantly lower signs of illness | 58% | 42% | 64% | 73% | 17% | complete absence of bacterial colonies | +4 |  | survival advantage compared with sham treatment ([5]; ~5 mM silver in 5 mL DH2O nebulized, Ag-PPE-SCKs dosed at 1 and 25 h, SCC1 at all five time points): 50%; LD50 of primary cells relative to that of 16HBE [7]: about 2 log10; accumulation in the liver [8]: minimal accumulation |
| CC(=O)[O][Ag][c]1n(CCCO)c(Cl)c(Cl)[n+]1C [SCC22] | 1.0 µg/mL | 0.75 µg/mL | 2.7 µM | 2.0 µM and 2 µM | 224 µM | 22.7 µM | significantly higher DEMs than SCC23 and SCC28 | 42% | significantly lower signs of illness | 25% | 58% | 67% | 67% | did not yield any survival advantage | No bacterial colonies were identified | +3 |  | survival advantage compared with sham treatment ([5]; 50 µmol, with DMSO): 50%; water solubility [9]: up to 110 g/L |
| CC(=O)[O][Ag][c]1n(Cc2ccc3ccccc3c2)c(Cl)c(Cl)[n+]1Cc1ccc2ccccc2c1 [SCC23] | 1.0 µg/mL | 0.50 µg/mL | 1.7 µM | 0.86 µM | 14.7 µM | 14.2 µM |  |  | appeared the most infirm at each time-point |  |  |  |  |  | bacterial colonies were not identified | +4 | significantly lower survival |  |
| CCCCCCn1c(Cl)c(Cl)[n+](Cc2ccc3ccccc3c2)[c]1[Ag][O]C(C)=O [SCC28] | 1.0 µg/mL | 0.50 µg/mL | 1.9 µM | 0.95 µM | 58.1 µM | 9.8 µM |  |  |  |  |  |  |  |  | bacterial colonies were not identified | 4 | significantly lower survival |  |
